Consider two compounds from US12129305B2, “Targeting CLPTM1L for treatment and prevention of cancer” (The Medical College of Wisconsin, Inc., priority 2018, dated 2024).

Test [1] has as its system Caspase-3 cleavage and Akt phosphorylation in SL3cis. Put plainly: Western blotting of SL3cis lysates for caspase cleavage and Akt phosphorylation. To be noted: SL3cis spheroids. The format is cell-based, human. On the procedure:
(A) A2780 apoptotic killing (casp 3/7 live imaging) after 36 hour mAb treatment (scFv clones 102-4a left, 102-5a right) and 24-hour carboplatin treatment. (B) Dose-response to up to 20 μM carboplatin in resistant A2780 cells treated with either control IgG1 or 102-5, relative to 0 carboplatin controls. (C) Kinetic killing assay (live imaging) in A2780 with human anti-CLP™1L scFv and/or 10 μM carboplatin treatment. *p<0.05, **p<0.005, ***p<0.0005. (D) Western blotting and densitometry for Akt and phospho-Akt (T308) in A2780 andA2780cis. […]
Cells were lysed with 100 μL of 1× NP40 lysis buffer containing proteinase inhibitors, sheared 10 times with a 28-gauge needle, spun at 16,000×g for 30 minutes, normalized by protein concentration as determined by the Bradford method, and the supernatant boiled for 5 minutes. Twenty microliters of normalized lysate were resolved by SDS-PAGE on 10% acrylamide gels at 150 volts for 1 hour, transferred by iBlot dry transfer (Life Technologies), blocked for 2 hours with TBST 10% milk, incubated with primary antibodies at 1:1000 in TBST 5% milk at 4C overnight with rocking, washed 3×5 minutes with TBST, incubated with secondary anti-rabbit-HRP (Santa Cruz Biotechnology) or goat anti-human-HRP (Invitrogen MH1715) at 1:10,000 in TBST 5% milk for 2 hours with rocking, washed 5×10 minutes with TBST, and signal analyzed using a Biorad Chemidoc XRS. […]

A further test has as its system SL3 parental xenografts. Put plainly: SL3 xenograft model, parental. Type of test: in vivo, NU/J mice. To be noted: weekly 2.5 mg/kg cisplatin and/or 5 mg/kg 102-5; 24 days post-inoculation. On the procedure:
(§1) Four-week old female NU/J mice (2019, Jackson Laboratories) were acclimated for 1 week before injection of 0.5×10^6 parental SL3 or 1×10^6 cisplatin-resistant SL3-cis cells subcutaneously into the flank in 200 μL PBS. Tumors were measured with calipers and volumes were calculated by ½ (W×W×L). After tumors had grown to an average of 100 mm^3, mice were separated into groups of 5 mice, each group with 100 mm^3 average tumor sizes. Mice were treated weekly with intraperitoneal doses of PBS control, cisplatin 2.5 mg/kg, and/or 102-5 5 mg/kg in 200 μL of PBS at room temperature beginning on day 6 post-inoculation. Cisplatin treatments were administered 24 hours following antibody treatment. Tumor volume was measured at least weekly. Animal health was monitored daily and animal weights measured at least weekly. All procedures were reviewed and approved by MCW IACUC committee #2 under AUA6339.
(§2) J/NU mice xenografted with SL3 parental or SL3-cis platinum resistant cells were treated weekly with control vehicles, 2.5 mg/kg cisplatin, and/or 5 mg/kg 102-5 anti-CLPTM1L. The effects of cisplatin and those of 102-5 on cisplatin treatment were investigated in this model rather than those of carboplatin since the SL3cis line was developed specifically as a cisplatin resistant line.

The test system of test [2] is SL3-cis platinum resistant xenografts. Put plainly: SL3 xenograft model, cisplatin resistant. Type of test: in vivo, NU/J mice. The note with it: weekly 2.5 mg/kg cisplatin and/or 5 mg/kg 102-5; 24 days post-inoculation. The procedure:
as §1, §2

The test system of test [3] is ID8-luc ovarian tumor cells. Put plainly: ID8-luc orthotopic syngeneic ovarian isograft model. Type of test: in vivo, C57bl/6 mice. The note with it: carboplatin alone, 10 mg/kg weekly for three weeks; over 35 days. The procedure:
ID8-luc model: Five-week-old C57bl/6 mice (Jackson labs strain 664) were acclimated for one week and injected intraperitoneally with […] luciferase expressing ID8 syngeneic ovarian tumor cells suspended in 200 μL of PBS under Medical College of Wisconsin animal protocol AUA6339. One week after injection, antibodies and/or chemotherapeutic agents were administered intraperitoneally at the indicated doses. Chemotherapeutic doses or vehicle were administered one day before control or therapeutic antibody doses. Imaging and analysis of luciferin radiance was done up to twice weekly on an IVIS Spectrum-CT Imaging System equipped with thermoelectrically-cooled CCD camera. Mice were monitored twice weekly for weight and signs of morbidity. Mice were euthanized after 45 days or upon signs of morbidity. Animal studies were conducted using the standards for humane treatment of animals as described in the U.S. Public Health Service Policy on Humane Care and Use of Laboratory Animals.
With disseminated peritoneal disease being the most common presentation upon recurrence of ovarian carcinoma, we utilized an orthotopic isograft model of disseminated peritoneal ovarian cancer. Human anti-CLPTM1L binding to luciferase-expressing ID8 ovarian tumor cells (ID8-luc) was detected by flow cytometry (FIG. 31A). […] Tumor load was monitored by luciferin luminescence using whole body imaging. […]

In the case of `N.N.[Cl][Pt][Cl]` [cisplatin, reference compound], the “Akt phosphorylation at threonine 308” value in test [1] is “induced by cisplatin treatment”. For the same compound, the Caspase-3 cleavage result in test [1] (16 days of growth) is listed as “Caspase-3 cleavage was induced”. In the test with SL3 parental xenografts, the “tumor growth and volumes” value is on record as “significantly inhibited”. Besides, in test [2], the tumor growth entry is recorded as “significantly inhibited tumor growth only in combination therapy with 102-5 anti-CLPTM1L”.
In test [3], `N.N.O=C([O-])C1(C(=O)[O-])CCC1.[Pt+2]` [carboplatin, reference compound] yielded a tumor load of 1.23 fold.
